The source of these data is US9963462B2 (priority 2015, dated 2018).

SMILES strings stand for the structures.

The target of this test is SNAP-hSPR (sepiapterin reductase, SPR) (Homo sapiens, UniProt P35270). The experiment in a line: biochemical. It counts as binding. Conditions: terbium labelled SNAP-hSPR / SSZ labelled SNAP-EGFP; read-out: hTR-FRET IC50.
SNAP-hSPR (sepiapterin reductase, SPR), sequence (P35270 whole entry): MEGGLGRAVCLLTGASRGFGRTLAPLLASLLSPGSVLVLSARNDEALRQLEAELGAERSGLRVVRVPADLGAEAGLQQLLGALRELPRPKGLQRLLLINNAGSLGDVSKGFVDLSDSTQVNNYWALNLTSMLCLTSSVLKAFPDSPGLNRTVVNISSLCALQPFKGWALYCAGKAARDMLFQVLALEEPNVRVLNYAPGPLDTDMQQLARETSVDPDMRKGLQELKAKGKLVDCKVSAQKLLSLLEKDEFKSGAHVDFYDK
Take `Cc1cc(=O)[nH]c(-c2cnn(CCC(=O)N3CCc4ccccc4C3)c2)n1` (single isomer, unassigned) [Q-0291, 6-methyl-2-{1-[3-oxo-3-(1,2,3,4-tetrahydroisoquinolin-2-yl)propyl]-1H-pyrazol-4-yl}-3,4-dihydropyrimidin-4-one]: the IC50 came out at 2700 nM.
As for `Cc1cc(-c2cnn(CCC(=O)N3CCc4ccccc4C3)c2)[nH]c(=O)n1` (single isomer, unassigned) [Q-0292, 4-methyl-6-{1-[3-oxo-3-(1,2,3,4-tetrahydroisoquinolin-2-yl)propyl]-1H-pyrazol-4-yl}-1,2-dihydropyrimidin-2-one], the IC50 was found to be 40000 nM.
In the case of `Cc1nc(-n2ncc(C(=O)N3c4ccccc4C[C@@H]3C)c2C)[nH]c(=O)c1C` (single isomer, unassigned) [Q-0457], the IC50 was found to be 100 nM.
The same measure for `Cc1cc(=O)[nH]c(-n2nc(C)c(CCC(=O)N3CCCCC3C)c2C)n1` (stereo not shown) [Q-0002]: 30 nM; for `COc1ccccc1NC(=O)c1cnn(-c2nc(C)cc(=O)[nH]2)c1C` [Q-0004]: 70 nM.
Then `Cc1cc(=O)[nH]c(-n2ncc(C(=O)NCCc3ccc(F)cc3)c2C)n1` [Q-0007], with 100 nM; and `Cc1cc(=O)[nH]c(-c2cnn(CCC(=O)N3CCCC3)c2)n1` [Q-0283, 6-methyl-2-{1-[3-oxo-3-(pyrrolidin-1-yl)propyl]-1H-pyrazol-4-yl}-3,4-dihydropyrimidin-4-one], with 1500 nM.
The same measure for `Cc1cc(=O)[nH]c(-c2c(C)nn(CCC(=O)N3CCc4ccccc4C3)c2C)n1` [Q-0284]: 2900 nM.
With `Cc1cc(-c2c(C)nn(CCC(=O)N3CCc4ccccc4C3)c2C)[nH]c(=O)n1` [Q-0285, 4-{3,5-dimethyl-1-[3-oxo-3-(1,2,3,4-tetrahydroisoquinolin-2-yl)propyl]-1H-pyrazol-4-yl}-6-methyl-1,2-dihydropyrimidin-2-one], the 50% inhibitory concentration (IC50) is 40000 nM.
Then `Cc1cc(=O)[nH]c(-n2ncc(C(=O)N3CCc4ccc(C#N)cc4C3)c2C)n1` [Q-0286], with 10 nM; and `Cc1cc(=O)[nH]c(-n2ncc(C(=O)O)c2C)n1` [Q-0290], with 2000 nM.
Then `Cc1cc(=O)[nH]c(-n2nc(C)c(CC(=O)N3CCCC3)c2C)n1` [Q-0301], with 200 nM.
Then `Cc1cc(=O)[nH]c(-c2c(C)nn(CCC(=O)N3CCCC3)c2C)n1` [Q-0306], with 25000 nM; and `CNC(=O)c1cnn(-c2nc(C)cc(=O)[nH]2)c1C` [Q-0316], with 300 nM.
For the molecule `Cc1c(C(=O)N2CCOCC2)cnn1-c1nc2ccccc2c(=O)[nH]1` [Q-0320], the IC50 was 1300 nM.
The same measure for `Cc1c(C(=O)NC2CCCC2)cnn1-c1nc2ccccc2c(=O)[nH]1` [Q-0321]: 900 nM.
The same measure for `Cc1cc(=O)[nH]c(-n2ncc(C(=O)N3CCC4(CCN(C)C4)C3)c2C)n1` (stereo not shown) [Q-0322]: 200 nM; for `Cc1c(C(=O)N2CCc3ccccc3C2)cnn1-c1nc2cc(Cl)sc2c(=O)[nH]1` [Q-0394]: 1500 nM.
In the case of `Cc1cc2nc(-n3ncc(C(=O)N4CCc5ccccc5C4)c3C)[nH]c(=O)c2s1` [Q-0407], the concentration for half-maximal inhibition (IC50) worked out at 1700 nM.
Then `Cc1cc2c(=O)[nH]c(-n3ncc(C(=O)N4CCC(C(F)(F)F)CC4)c3C)nc2s1` [Q-0413], with 2200 nM; and `CCC1Cc2ccccc2N1C(=O)c1cnn(-c2nc(C)cc(=O)[nH]2)c1C` (stereo not shown) [Q-0420], with 7 nM; and `Cc1nc(-n2ncc(C(=O)N3CCC(C(F)(F)F)CC3)c2C)cc(=O)[nH]1` [Q-0436], with 4600 nM.
The same measure for `Cc1nc(-n2ccc(C(=O)N3CCC(C(F)(F)F)CC3)n2)cc(=O)[nH]1` [Q-0437, 2-methyl-6-{3-[4-(trifluoromethyl)piperidine-1-carbonyl]-1H-pyrazol-1-yl}-3,4-dihydropyrimidin-4-one]: 5000 nM; for `Cc1c(C(=O)N2CCC(C(F)(F)F)CC2)cnn1-c1nc2ccnn2c(=O)[nH]1` [Q-0447]: 400 nM.
The same measure for `Cc1c(C(=O)N2CCC(C(F)(F)F)CC2)cnn1-c1nc2nc[nH]c2c(=O)[nH]1` [Q-0448]: 1500 nM; for `O=C(c1cnn(-c2cc3nccn3c(=O)[nH]2)c1)N1CCC(C(F)(F)F)CC1` [Q-0452]: 800 nM.
Turning to `Cc1cc(-n2ncc(C(=O)N3CCC(C(F)(F)F)CC3)c2C)[nH]c(=O)n1` [Q-0454], the concentration for half-maximal inhibition (IC50) was determined as 300 nM.
For the molecule `Cc1cc(=O)n(C)c(-n2ncc(C(=O)N3CCc4ccccc4C3)c2C)n1` [Q-0455], the IC50 was 16000 nM.
The same measure for `Cc1c(C(N2CCC(C(F)(F)F)CC2)C(F)(F)F)cnn1-c1nc2c(c(=O)[nH]1)CCC2` (stereo not shown) [Q-0503, 2-(5-methyl-4-{2,2,2-trifluoro-1-[4-(trifluoromethyl)piperidin-1-yl]ethyl}-1H-pyrazol-1-yl)-3H,4H,5H,6H,7H-cyclopenta[d]pyrimidin-4-one]: 4000 nM; for `O=c1[nH]c(-c2cc(Br)ccn2)nc2ccsc12` [Q-0540]: 300 nM.
The same measure for `Cc1c(C(=O)O)cnn1-c1nc2ccsc2c(=O)[nH]1` [Q-0541]: 200 nM; for `Cc1c(C(=O)O)cnn1-c1nc2sccc2c(=O)[nH]1` [Q-0542]: 100 nM; for `O=C(O)c1cnn(-c2nc3c(c(=O)[nH]2)CCC3)c1C1CC1` [Q-0544]: 30 nM.
For the molecule `Cc1c(C(=O)N2CCC(c3nc(C(N)=O)cs3)CC2)cnn1-c1nn2cccc2c(=O)[nH]1` [Q-1090], the IC50 stood at 1 nM.
The same measure for `Cc1c(C(=O)N2CCN(c3nnc(-c4cccnc4)o3)CC2)cnn1-c1nn2cccc2c(=O)[nH]1` [Q-1150]: 1 nM; for `Cc1c(C(=O)N2CCNCC2)cnn1-c1nn2cccc2c(=O)[nH]1` [Q-1251]: 50 nM.
The same measure for `Cc1c(C(=O)N2CCN(CC(F)(F)F)CC2)cnn1-c1nc2c(ccn2C)c(=O)[nH]1` [Q-1266]: 200 nM.
The same measure for `CCn1ccc2c(=O)[nH]c(-n3ncc(C(=O)N4CCN(CC(F)(F)F)CC4)c3C)nc21` [Q-1292]: 5000 nM; for `Cc1c(C(=O)N2CC3(C2)CC(F)(F)C3)cnn1-c1nc2[nH]ncc2c(=O)[nH]1` [Q-1295]: 2400 nM; for `Cc1c(C(=O)N2CCN(CC(F)(F)F)CC2)cnn1-c1nc2[nH]ncc2c(=O)[nH]1` [Q-1296]: 600 nM.
Regarding `Cc1c(C(=O)N2CC3(C2)CC(F)(F)C3)cnn1-c1nc2c(ccn2C)c(=O)[nH]1` [Q-1306], the IC50 worked out at 500 nM.
The same measure for `CCn1ccc2c(=O)[nH]c(-n3ncc(C(=O)N4CC(N5CCC(F)(F)C5)C4)c3C)nc21` [Q-1311]: 5000 nM.
Then `CCn1ccc2c(=O)[nH]c(-n3ncc(C(=O)N4CC5(C4)CC(F)(F)C5)c3C)nc21` [Q-1313], with 5000 nM; and `Cc1c(C(=O)N2CCC2c2ccnc(F)c2)cnn1-c1nn2cccc2c(=O)[nH]1` (stereo not shown) [Q-1320], with 20 nM.
The same measure for `Cc1c(C(=O)N2CC(N3CCC(F)(F)C3)C2)cnn1-c1nc2c(ccn2C)c(=O)[nH]1` [Q-1322]: 400 nM; for `CCn1ccc2c(=O)[nH]c(-n3ncc(C(=O)N4CC5CC(C4)N5CC(F)(F)F)c3C)nc21` [Q-1341]: 5000 nM; for `Cc1c(C(=O)N2CC(N3CCC(F)(F)C3)C2)cnn1-c1nc2c(c(=O)[nH]1)COC2` [Q-1343]: 70 nM.
For `Cc1c(C(=O)N2CC(N3CCC(F)(F)C3)C2)cnn1-c1nc2[nH]ncc2c(=O)[nH]1` [Q-1345], the half-inhibitory concentration (IC50) is 1400 nM.
With `Cc1c(C(=O)N2CC3(C2)CC(F)(F)C3)cnn1-c1nc2c(c(=O)[nH]1)COC2` [Q-1346], the concentration for half-maximal inhibition (IC50) amounted to 50 nM.
On to `Cc1c(C(=O)N2CC3CC(C2)N3CC(F)(F)F)cnn1-c1nc2c(ccn2C)c(=O)[nH]1` [Q-1365], for which the concentration for half-maximal inhibition (IC50) came out at 1000 nM.
The same measure for `Cc1c(C(=O)N2CC3CC(C2)N3CC(F)(F)F)cnn1-c1nc2c(c(=O)[nH]1)COC2` [Q-1483]: 30 nM.
Take `Cc1c(C(=O)N2CC3CC(C2)N3CC(F)(F)F)cnn1-c1nc2[nH]ncc2c(=O)[nH]1` [Q-1560]: the 50% inhibitory concentration (IC50) turned out to be 800 nM.
Then `Cc1c(C(=O)N2CCN(CC(F)(F)F)CC2)cnn1-c1nc2c(c(=O)[nH]1)CC(C)(C)C2` [Q-1563], with 5000 nM; and `Cc1c(C(=O)N2CC(N3CCC(F)(F)C3)C2)cnn1-c1nc2c(c(=O)[nH]1)CC(C)(C)C2` [Q-1564, 2-(4-(3-(3,3-difluoropyrrolidin-1-yl)azetidine-1-carbonyl)-5-methyl-1H-pyrazol-1-yl)-6,6-dimethyl-6,7-dihydro-3H-cyclopenta[d]pyrimidin-4(5H)-one], with 5000 nM; and `Cc1c(C(=O)N2CC3(C2)CC(F)(F)C3)cnn1-c1nc2c(c(=O)[nH]1)CC(C)(C)C2` [Q-1565], with 5000 nM.
The same measure for `Cc1c(C(=O)O)cnn1-c1nc2c(c(=O)[nH]1)CC(C)(C)C2` [Q-1597]: 5000 nM; for `COC(=O)c1cnn(-c2nc3c(c(=O)[nH]2)CC(C)(C)C3)c1C` [Q-1641]: 5000 nM; for `Cc1c(C(=O)N2CCN(S(=O)(=O)c3ccc(OC(F)(F)F)cc3)CC2)cnn1-c1nn2cccc2c(=O)[nH]1` [Q-1798, 2-(5-methyl-4-(4-(4-(trifluoromethoxy)phenylsulfonyl)piperazine-1-carbonyl)-1H-pyrazol-1-yl)pyrrolo[1,2-f][1,2,4]triazin-4(3H)-one]: 2 nM.
The same measure for `Cc1c(C(=O)N2CCN(S(=O)(=O)c3ccc(C(C)(C)C)cc3)CC2)cnn1-c1nn2cccc2c(=O)[nH]1` [Q-1800]: 2 nM; for `Cc1c(C(=O)N2CCN(S(=O)(=O)c3ccc(F)c(Cl)c3)CC2)cnn1-c1nn2cccc2c(=O)[nH]1` [Q-1801]: 2 nM.
Turning to `COc1ccc(S(=O)(=O)N2CCN(C(=O)c3cnn(-c4nn5cccc5c(=O)[nH]4)c3C)CC2)cc1` [Q-1804], the IC50 came out at 2 nM.
The same measure for `Cc1c(C(=O)N2CCN(S(=O)(=O)c3cc(Cl)c(Cl)s3)CC2)cnn1-c1nn2cccc2c(=O)[nH]1` [Q-1814]: 2 nM.
The same measure for `Cc1c(C(=O)N2CCN(S(=O)(=O)c3cccc4c(N(C)C)cccc34)CC2)cnn1-c1nn2cccc2c(=O)[nH]1` [Q-1815]: 2 nM.
The same measure for `Cc1c(C(=O)N2CCN(S(=O)(=O)c3cc(Cl)ccc3Cl)CC2)cnn1-c1nn2cccc2c(=O)[nH]1` [Q-1825]: 2 nM.
